Assay results taken from patent US20070048356A1, “Antimicrobial treatment of nonwoven materials for infection control” (priority 2005, published 2007).

What was measured:
A. Niger (ATCC 16404) = assay: Dynamic Shake Flask (based on ASTM E 2149-01) on treated nonwoven; type: cell-based; details: Table 14, Spunbond
Protocol: The test organisms are grown in 25 mL appropriate broth medium for about 24±2 hours at 37±2° C. in a wrist action shaker. The bacterial culture is then transferred by placing about 100 μL aliquot in 25 mL of broth and grown again for about 24±2 hours at 37±2° C. The organisms are then centrifuged and washed three times with phosphate buffered saline (PBS). The organisms are then suspended in PBS to obtain an inoculum of approximately 1×10^8 CFU/mL.
The test articles and control swatches are exposed to an ultraviolet light source for about 5-10 minutes per side before testing to assure that the swatches are sanitized prior to inoculation with the bacteria. The test materials are brought into contact with a known population of test bacteria from the inoculum for a specified period of time. A sample is then plated at the end of the exposure time to enumerate the surviving bacteria. The log10 reduction form the control material and the original population is calculated using the following formula: Log10 Control*−Log10 CFU/swatch Test Article=Log10 Reduction
[…] This buffer solution contains a chemical to de-activate or “neutralize” the antimicrobial agent to (a) stop the active agent from killing the organisms after the designated time period and (b) to prevent artifacts that may arise from exposing the microorganisms to the antimicrobial in solution rather than solely on the substrate. Because each chemical used as an antimicrobial agent is a little different (ie: cationic, nonionic, metal, etc), a different neutralizer was likely added in each case to shut off the antimicrobial at the desired end point of the experiment. […] The neutralizer employed may be selected from a list that is commonly used in the field. These include, non-ionic degtergents, Bisulphate, lecithin, leethen broth, thiosulfate, thioglycolate, and pH buffers, Method similar to those described in American Society for Testing and Materials, Standard Practices for Evaluating Inactivators of Antimicrobial Agents Used in Disinfectant, Sanitizer, Antiseptic, or Preserved Products, Amer. Soc. Testing Mat. E 1054-91 (1991) can be used.

S. aureus (ATCC 6538) = assay: as above; type: cell-based
[1] = test system: broad spectrum of microorganism (gram positive and gram negative bacteria, and fungi: mold and yeast); details: within 15 minutes; baseline data of Tables 12-15
Protocol: The experimental procedure is based on ASTM E 2149-01. In brief, the test is performed by first adding a 2″×2″ sample of treated material to a flask containing 50 mL of a buffered-saline solution. The flask is then inoculated with the challenge organism (6.5-7 log10 total) and shaken through mechanical means for a designated period of time. At specified time points, a sample of the solution is then removed and plated. Lastly, the plate is incubated, examined for microbial growth, and the number of colony forming units counted. The log reduction in organisms is measured by comparing the growth on the experimental plate to control plates with no antimicrobial treatment.

C. Albicans (ATCC 10231) = assay: Dynamic Shake Flask (based on ASTM E 2149-01) on treated nonwoven; type: cell-based; details: Table 15, SMS
S. aureus = assay: Zone of inhibition test to measure leaching; type: cell-based; details: AATCC 147 and ASTM E 2149-01 protocols
Protocol: First, according to the American Association of Textile Chemists and Colorists (AATCC)-147 test protocol, in a dry-leaching test, the antimicrobial treated material is placed in an agar plate seeded with a known amount of organism population on the plate surface. The plate is then incubated for about 18-24 hours at about 35° C. or 37° C.±2° C. Afterwards, the agar plate is assessed. Any leaching of the antimicrobial from the treated material would result in a zone of inhibited microbial growth. […] The piece of material was allowed to sit for 24 hours in solution and then the supernatant of the solution was extracted. […] About 100 micro liters (μL) of supernatant is added to a 8 mm well cut into a seeded agar plate and allow to dry. […] In summary, these protocols are performed by incubating an inoculated plate containing either the actual treated material or a solution that has been exposed to the treated material. This plate is then analyzed for zones of inhibition of organism growth to detect if the antimicrobial has leached off of the material or into the solution.

[2] = test system: Staphylococcus aureus (ATCC #27660); assay: Rapid Germicidal Time Kill on treated gloves; type: cell-based; details: for log reduction of organisms: nitrile gloves, versus applied organisms estimated from latex control
From the text: In another aspect, to assess the efficacy of how rapidly the applied antimicrobial agents kill, we employed a direct contact, rapid germicidal test, developed by Kimberly-Clark Corporation. This test better simulates real world working situations in which microbes are transferred from a substrate to glove through direct contacts of short duration. Also this test permits us to assess whether contact with the surface of the glove at one position will quickly kill microbes, whereas the solution-based testing of the ASTM E 2149-01 protocol tends to provide multiple opportunities to contact and kill the microbes, which less realistic in practice.
We applied an inoculum of a known amount of microbes to the antimicrobial-treated surface of a glove. After about 3-6 minutes, we assessed the number of microbes that remained on the surface of the treated glove. […] The concentration of organisms on the surface is given at an initial Zero Time point and at 3, 5, and 30 minute points.
To test the antimicrobial efficacy of a polyhexamethylene biguanide, we treated nitrile examination gloves according to ASTM protocol 04-123409-106 “Rapid Germicidal Time Kill.” In brief, about 50 μL of an overnight culture of Staphylococcus aureus (ATCC #27660, 5×10^8CFU/mL) was applied to the glove material. After a total contact time of about 6 minutes the glove fabric was placed into a neutralizing buffer. Surviving organisms were extracted and diluted in Letheen broth. Aliquots were spread plated on Tryptic Soy Agar plates. Plates were incubated for 48 hours at 35° C. Following incubation the surviving organisms were counted and the colony forming units (CFU) were recorded. The reduction (log10) in surviving organisms from test material versus control fabric was calculated: Log10 CFU/swatch Control−Log10 CFU/swatch Test Article=Log10 Reduction.

[3] = Table 25, nitrile glove samples, Inoculum: 8.08

## Polyhexamethylene biguanide [PHMB]
A. Niger (ATCC 16404); contact time 1 min
  Dynamic Shake Flask Log10 Reduction: 4.00 Log10
A. Niger (ATCC 16404); contact time 5 min
  Dynamic Shake Flask Log10 Reduction: 4.00 Log10
A. Niger (ATCC 16404); contact time 15 min
  Dynamic Shake Flask Log10 Reduction: 4.00 Log10
S. aureus (ATCC 6538); Table 12, Meltblown, contact time 1 min
  Dynamic Shake Flask Log10 Reduction: 4 Log10
S. aureus (ATCC 6538); Table 12, Meltblown, contact time 5 min
  Dynamic Shake Flask Log10 Reduction: 4 Log10
S. aureus (ATCC 6538); Table 12, Meltblown, contact time 15 min
  Dynamic Shake Flask Log10 Reduction: 4 Log10
S. aureus (ATCC 6538); Table 12, SMS, contact time 1 min
  Dynamic Shake Flask Log10 Reduction: 4 Log10
S. aureus (ATCC 6538); Table 12, SMS, contact time 5 min
  Dynamic Shake Flask Log10 Reduction: 4 Log10
S. aureus (ATCC 6538); Table 12, SMS, contact time 15 min
  Dynamic Shake Flask Log10 Reduction: 4 Log10
S. aureus (ATCC 6538); Table 12, Spunbond, contact time 1 min
  Dynamic Shake Flask Log10 Reduction: 4 Log10
S. aureus (ATCC 6538); Table 12, Spunbond, contact time 5 min
  Dynamic Shake Flask Log10 Reduction: 4 Log10
S. aureus (ATCC 6538); Table 12, Spunbond, contact time 15 min
  Dynamic Shake Flask Log10 Reduction: 4 Log10
S. aureus (ATCC 6538); Table 16, Spunbond substrate, contact time 1 min, listed as 0.5% PHMB
  Dynamic Shake Flask Log10 Reduction: 2.31 Log10
S. aureus (ATCC 6538); Table 16, Spunbond substrate, contact time 1 min, listed as 1.0% PHMB
  Dynamic Shake Flask Log10 Reduction: 4.00 Log10
S. aureus (ATCC 6538); Table 16, Spunbond substrate, contact time 5 min
  Dynamic Shake Flask Log10 Reduction: 4.00 Log10
S. aureus (ATCC 6538); Table 16, Spunbond substrate, contact time 15 min
  Dynamic Shake Flask Log10 Reduction: 4.00 Log10
S. aureus (ATCC 6538); Table 17, Spunbond substrate, contact time 1 min
  Dynamic Shake Flask Log10 Reduction: 0.18 Log10
S. aureus (ATCC 6538); Table 17, Spunbond substrate, contact time 5 min
  Dynamic Shake Flask Log10 Reduction: 0.33 Log10
S. aureus (ATCC 6538); Table 17, Spunbond substrate, contact time 15 min
  Dynamic Shake Flask Log10 Reduction: 0.58 Log10
S. aureus (ATCC 6538); Table 19, SMS substrate, contact time 1 min
  Dynamic Shake Flask Log10 Reduction: 0.18 Log10
S. aureus (ATCC 6538); Table 19, SMS substrate, contact time 5 min
  Dynamic Shake Flask Log10 Reduction: 0.33 Log10
S. aureus (ATCC 6538); Table 19, SMS substrate, contact time 15 min
  Dynamic Shake Flask Log10 Reduction: 0.58 Log10
[1]
  log10 reduction in colony forming units (CFU): ≥ 3 log10
C. Albicans (ATCC 10231); contact time 1 min
  Dynamic Shake Flask Log10 Reduction: 1.28 Log10
C. Albicans (ATCC 10231); contact time 5 min
  Dynamic Shake Flask Log10 Reduction: 2.38 Log10
C. Albicans (ATCC 10231); contact time 15 min
  Dynamic Shake Flask Log10 Reduction: 3.48 Log10
S. aureus
  zones of inhibition / leaching from the treated substrate: does not leach
[2]; Table 23, microtextured nitrile glove, total contact time about 6 minutes
  Result (Log10 Reduction, test material versus control): >4.7 log10
[2]; Table 24, latex glove samples, total contact time about 6 minutes
  Result (Log10 Reduction versus PFE control): >5.83 log10
[2]; [3]
  Result (log reduction of test glove compared to control glove): >1.85 log
  Result (log reduction of test glove compared to control glove), class: NR (No Reduction = less than 0.5 log reduction of test glove compared to control glove.)
[2]; microtextured nitrile glove, machine applied at 0.03 g/glove
  log reduction of Staphylococcus aureus ATCC 27660: greater than four
[2]; hand sprayed with no heat
  log reduction of organisms: greater than one
[2]; machine sprayed under heated conditions
  log reduction of organisms: greater than 5 log
